Measured values taken from patent US20250136581A1, “SUBSTITUTED TRIAZOLE DERIVATIVE, PREPARATION METHOD THEREFOR, PHARMACEUTICAL COMPOSITION THEREOF, AND USE THEREOF” (SHANGHAI SIMR BIOTECHNOLOGY CO., LTD., priority 2021, published 2025).
pKi: −log10 of the molar value.

Legend:
[1] = target: human α5β3γ2 receptors (α5-GABAA receptor) (Homo sapiens (Human), UniProt P18507+P31644); assay: 3H-flunitrazepam competition binding, human α5β3γ2 GABAA receptor; conditions: HEK293 cell membranes, 1 nM 3H-flunitrazepam; read-out: α5-GABAAR Ki
In short: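 HEK293 membranes stably expressing each human receptor subtype ([…]) competed against 1 nM 3H-flunitrazepam in Tris buffer, 1 h at room temperature; flumazenil defined the low-signal control. Eight-point 4-fold test-compound dilutions; GF/C filtration and scintillation counting gave IC50 by curve fitting, converted to Ki.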

[2] = target: α5-GABAA receptor (α5, β3, γ2 subunits) (Homo sapiens (Human), UniProt P18507+P31644); assay: Whole cell patch clamp, inverse agonist efficacy in HEK293 cells expressing α5-GABAA receptor; assay type: cell-based; conditions: HEK293, drug 100 nM, GABA 0.05 μM, −60 mV; read-out: Compound inverse agonist efficacy %
Excerpt: The inventors used electrophysiological methods to determine the inverse agonist efficacy of the drugs to be tested on the α5-GABAA receptor. The detailed methods are as follows:
Different subunits of the GABAA receptor were co-expressed in the HEK293 cell line to construct a fully functional GABAA receptor. The α, β, and γ subunits are essential to form a complete functional GABAA receptor. In this example, the present disclosure had established the following cell model: α5 subunit (see GenBank Accession No.: NM_000810.3 for protein sequences), β3 subunit (see GenBank Accession No.: NM_000814.5 for protein sequences), and γ2 subunit (see GenBank Accession No.: NM_000816.3 for protein sequences) were co-expressed in the HEK293 cell line, followed by screening the monoclonal stably transfected cell line. This cell line expressed a fully functional α5-GABAA receptor.
The monoclonal stably transfected HEK293 cell line expressing α5-GABAA receptor were cultured in 10 cm culture dishes and passaged when the cells grew to 80% to 90% confluent. During passaging, the culture medium was aspirated first, then 3 mL of DPBS phosphate buffer salt (Gibco™) was added to the culture dishes, and the culture dishes were shaken slightly, and DPBS was aspirated. 1 mL of trypsin (TrypLE Express, Gibco™) was added thereto, and the cells were digested at 37° C. for 1-2 minutes. Then 3 mL of complete medium (DMEM+10% FBS (Gibco™)) was added and the cells at the bottom of the culture dishes were dispersed. The cell suspension was transferred to a 15 mL centrifugal tube (Corning) and then centrifuged at 200 g for 3 minutes. The supernatant was discarded, 4 mL of complete medium was added, and the cells were gently blown and resuspended for use. If cell passaging was performed, the cell suspension was diluted at a ratio of 1:5 or 1:10. If cells for electrophysiological detection were prepared, the cell suspension was diluted in a ratio of 1:12, then added into a 24-well dish (Corning™) in which glass slides were placed and pretreated with Poly-D-Lysine, and the experiment was carried out after the cells adhered to the wall. The cells used for electrophysiology was cultured no more than 48 hours.
Drug concentration setting: The final drug concentration used in drug screening was 100 nM, and the GABA concentration was 0.05 μM. The whole cell patch clamp technique was used in electrophysiological assays, which could refer to the literature (I. Lecker, Y. Yin, D. S. Wang and B. A. Orser, British Journal of Anaesthesia, 2013, 110 (Si), i73-i81). The compositions of the extracellular solution for electrophysiology assay were as follows: 150 mM NaCl, 5 mM KCl, 2.5 mM CaCl2, 1 mM MgCl2, 10 mM HEPES, and 10 mM glucose (pH 7.4); the formulation of the electrode internal fluid for electrophysiology use was as follows: 140 mM CsCl, 11 mM EGTA, 10 mM HEPES, 2 mM CaCl2, 1 mM MgCl2, 4 mM MgATP, and 2 mM TEA (pH 7.3). The signal acquisition used an EPC-10 amplifier and the PatchMaster software (HEKA) or Axon700B amplifier and Clampex software (AXON). The recording electrode was pulled from borosilicate glass, and the electrode resistance was 4 to 6 MQ. The ALA-VC-8PG™ system was used for drug application. Single cell that grew independently was selected for recording. During recording, the cell membrane potential was clamped at −60 mV. During experiment, an extracellular solution was applied outside the cells for about 20 seconds. When the baseline reached to a stable state, the extracellular solution was switched to the GABA solution to induce an inward current. After about 20 to 40 seconds until the current was stable, the solution was switched to a corresponding drug solution to detect the effect of the drug. At last, the solution was switched to the extracellular solution, and the experiment was terminated when the baseline returned to the level before drug application. […]

Compound	pKi [1]	inhibition at 0.1 µM [2]
Cc1nnn(-c2ccc(C(F)F)cc2)c1COc1ccc(N2CCN3CCN(C)C(=O)[C@@H]3C2)nn1 [Example 107, (S)-8-(6-((1-(4-(Difluoromethyl)phenyl)-4-methyl-1H-1,2,3-triazol-5-yl)methoxy)pyridazin-3-yl)-2-methyloctahydro-1H-pyrazino[1,2-a]pyrazin-1-one]	7.81	49.2%
Cc1nnn(-c2ccc(C(F)F)cc2)c1COc1ccc(N2CCN(CCN3CCC(F)(F)C3)C(=O)C2)nn1 [Example 110, 4-(6-((1-(4-(Difluoromethyl)phenyl)-4-methyl-1H-1,2,3-triazol-5-yl)methoxy)pyridazin-3-yl)-1-(2-(3,3-difluoropyrrolidin-1-yl)ethyl)piperazin-2-one]	8.80	47.5%
Cc1nnn(-c2ccc(C(F)F)cc2)c1COc1ccc(N2CCN(c3ccncc3)C(=O)C2)nn1 [Example 114, 4-(6-((1-(4-(Difluoromethyl)phenyl)-4-methyl-1H-1,2,3-triazol-5-yl)methoxy)pyridazin-3-yl)-1-(pyridin-pyridin-4-yl)piperazin-2-one]	8.55	51.3%
Cn1nnc(-c2ccc(F)cc2)c1COc1ccc(N2CCNC(=O)C2)nn1 [Example 128, 4-(6-((4-(4-Fluorophenyl)-1-methyl-1H-1,2,3-triazol-5-yl)methoxy)pyridazin-3-yl)piperazin-2-one]	7.65	53.9%
Cc1nnn(-c2ccc(OC(F)F)cc2)c1COc1ccc(N2CCN3CCNC(=O)[C@@H]3C2)nn1 [Example 130, (S)-8-(6-((1-(4-(Difluoromethoxy)phenyl)-4-methyl-1H-1,2,3-triazol-5-yl)methoxy)pyridazin-3-yl)octahydro-2H-pyrazino[1,2-a]pyrazin-1(6H)-one]	7.77	57%
O=C1CN(c2ccc(OCc3c(Cl)nnn3-c3ccc(C(F)F)cc3)nn2)CCN1 [Example 131, 4-(6-((4-Chloro-1-(4-(difluoromethyl)phenyl)-1H-1,2,3-triazol-5-yl)methoxy)pyridazin-3-yl)piperazin-2-one]	8.87	47.6%
O=C1CN(c2ccc(OCc3cnnn3-c3ccc(C(F)F)cc3)nn2)CCN1 [Example 132, 4-(6-((1-(4-(Difluoromethyl)phenyl)-1H-1,2,3-triazol-5-yl)methoxy)pyridazin-3-yl)piperazin-2-one]	7.92	53.2%
COc1cc(N2CCNC(=O)C2)nnc1OCc1c(C)nnn1-c1ccc(C(F)F)cc1 [Example 134, 4-(6-((1-(4-(Difluoromethyl)phenyl)-4-methyl-1H-1,2,3-triazol-5-yl)methoxy)-5-methoxypyridazin-3-yl)piperazin-2-one]	8.82	45.7%
COCCN1CCN(c2ccc(OCc3c(C)nnn3-c3ccc(C(F)F)cc3)nn2)CC1=O [Example 139, 4-(6-((1-(4-(Difluoromethyl)phenyl)-4-methyl-1H-1,2,3-triazol-5-yl)methoxy)pyridazin-3-yl)-1-(2-methoxyethyl)piperazin-2-one]	8.86	46.4%
COC(C)CN1CCN(c2ccc(OCc3c(C)nnn3-c3ccc(C(F)F)cc3)nn2)CC1=O (stereo not shown) [Example 141, 4-(6-((1-(4-(Difluoromethyl)phenyl)-4-methyl-1H-1,2,3-triazol-5-yl)methoxy)pyridazin-3-yl)-1-(2-methoxypropyl)piperazin-2-one]	8.37	47.2%
Cc1nnn(-c2ccc(C(F)F)cc2)c1COc1ccc(N2CCN(CCCC#N)C(=O)C2)nn1 [Example 143, 4-(4-(6-((1-(4-(Difluoromethyl)phenyl)-4-methyl-1H-1,2,3-triazol-5-yl)methoxy)pyridazin-3-yl)-2-oxopiperazin-1-yl)butanenitrile]	8.72	52.5%

The remaining lines, values ahead:

pKi [1]	inhibition at 0.1 µM [2]	Compound
8.90	69%	Cc1nnn(-c2ccc(C(F)F)cc2)c1COc1ccc(N2CCN(CCCc3ccc(C#N)cc3)C(=O)C2)nn1 [Example 145, 4-(3-(4-(6-((1-(4-(Difluoromethyl)phenyl)-4-methyl-1H-1,2,3-triazol-5-yl)methoxy)pyridazin-3-yl)-2-oxopiperazin-1-yl)propyl)benzonitrile]
8.35	56.5%	O=C(O)c1ccc(CCCN2CCN(c3ccc(OCc4c(Cl)nnn4-c4ccc(C(F)F)cc4)nn3)CC2=O)cc1 [Example 146, 4-(3-(4-(6-((4-Chloro-1-(4-(difluoromethyl)phenyl)-1H-1,2,3-triazol-5-yl)methoxy)pyridazin-3-yl)-2-oxopiperazin-1-yl)propyl)benzoic acid]
8.18	54.5%	Cc1nnn(-c2ccc(C(F)F)cc2)c1COc1ccc(N2CCN3CCN(C4COC4)C(=O)[C@@H]3C2)nn1 [Example 147, (S)-8-(6-((1-(4-(Difluoromethyl)phenyl)-4-methyl-1H-1,2,3-triazol-5-yl)methoxy)pyridazin-3-yl)-2-(oxetan-3-yl)hexahydro-2H-pyrazino[1,2-a]pyrazin-1(6H)-one]
8.28	46.6%	Cc1nnn(-c2ccc(C(F)F)cc2)c1COc1ccc(N2CC(C(=O)N3CCCC(O)C3)C2)nn1 (stereo not shown) [Example 154, (1-(6-((1-(4-(Difluoromethyl)phenyl)-4-methyl-1H-1,2,3-triazol-5-yl)methoxy)pyridazin-3-yl)azetidin-3-yl)(3-hydroxypiperidin-1-yl)methanone]
8.38	44.3%	Cc1nnn(-c2ccc(C(F)F)cc2)c1COc1ccc(N2CC(C(=O)N3CC(C)OC(C)C3)C2)nn1 (stereo not shown) [Example 156, (1-(6-((1-(4-(Difluoromethyl)phenyl)-4-methyl-1H-1,2,3-triazol-5-yl)methoxy)pyridazin-3-yl)azetidin-3-yl)(2,6-dimethylmorpholino)methanone]
8.45	44.2%	Cc1nnn(-c2ccc(C(F)F)cc2)c1COc1ccc(N2CC(C(=O)N3CC4CC3CO4)C2)nn1 (stereo not shown) [Example 157, (2-Oxa-5-azabicyclo[2.2.1]heptan-5-yl)(1-(6-((1-(4-(difluoromethyl)phenyl)-4-methyl-1H-1,2,3-triazol-5-yl)methoxy)pyridazin-3-yl)azetidin-3-yl)methanone]
7.70	49.9%	CCNC(=O)C1CN(c2ccc(OCc3c(C)nnn3-c3ccc(C(F)F)cc3)nc2)C1 [Example 159, 1-(6-((1-(4-(Difluoromethyl)phenyl)-4-methyl-1H-1,2,3-triazol-5-yl)methoxy)pyridin-3-yl)-N-ethylazetidine-3-carboxamide]
8.21	42.7%	Cc1nnn(-c2ccc(C(F)F)cc2)c1COc1ccc(N2CC(C(=O)N3CCOCC3)C2)cn1 [Example 160, (1-(6-((1-(4-(Difluoromethyl)phenyl)-4-methyl-1H-1,2,3-triazol-5-yl)methoxy)pyridin-3-yl)azetidin-3-yl)(morpholino)methanone]
8.59	47.7%	Cc1nnn(-c2ccc(CF)cc2)c1COc1ccc(N2CCN3CCNC(=O)[C@@H]3C2)nn1 [Example 162, (S)-8-(6-((1-(4-(Fluoromethyl)phenyl)-4-methyl-1H-1,2,3-triazol-5-yl)methoxy)pyridazin-3-yl)hexahydro-2H-pyrazino[1,2-a]pyrazin-1(6H)-one]
